# Data from ChEMBL document CHEMBL1131915, “Substituted furans as inhibitors of the PDE4 enzyme” (Bioorg Med Chem Lett, 1999).
# Organism: Mustela putorius furo
# Assay: Emetic effect in ferret model, threshold value
# Type: functional
row,Compound,Threshold value [mg/kg]
1,COc1ccc(-c2ccc(-c3ccccn3)o2)cc1OC1CCCC1,10
2,COc1ccc([C@@H]2CNC(=O)C2)cc1OC1CCCC1 [(-)-ROLIPRAM],0.3

# Molecular target: 3',5'-cyclic-AMP phosphodiesterase 4A (Homo sapiens, UniProt P27815)
# Assay: PDE4A activity assessed using human recombinant purified GST-PDE4A248
# 3',5'-cyclic-AMP phosphodiesterase 4A, sequence (P27815 whole entry): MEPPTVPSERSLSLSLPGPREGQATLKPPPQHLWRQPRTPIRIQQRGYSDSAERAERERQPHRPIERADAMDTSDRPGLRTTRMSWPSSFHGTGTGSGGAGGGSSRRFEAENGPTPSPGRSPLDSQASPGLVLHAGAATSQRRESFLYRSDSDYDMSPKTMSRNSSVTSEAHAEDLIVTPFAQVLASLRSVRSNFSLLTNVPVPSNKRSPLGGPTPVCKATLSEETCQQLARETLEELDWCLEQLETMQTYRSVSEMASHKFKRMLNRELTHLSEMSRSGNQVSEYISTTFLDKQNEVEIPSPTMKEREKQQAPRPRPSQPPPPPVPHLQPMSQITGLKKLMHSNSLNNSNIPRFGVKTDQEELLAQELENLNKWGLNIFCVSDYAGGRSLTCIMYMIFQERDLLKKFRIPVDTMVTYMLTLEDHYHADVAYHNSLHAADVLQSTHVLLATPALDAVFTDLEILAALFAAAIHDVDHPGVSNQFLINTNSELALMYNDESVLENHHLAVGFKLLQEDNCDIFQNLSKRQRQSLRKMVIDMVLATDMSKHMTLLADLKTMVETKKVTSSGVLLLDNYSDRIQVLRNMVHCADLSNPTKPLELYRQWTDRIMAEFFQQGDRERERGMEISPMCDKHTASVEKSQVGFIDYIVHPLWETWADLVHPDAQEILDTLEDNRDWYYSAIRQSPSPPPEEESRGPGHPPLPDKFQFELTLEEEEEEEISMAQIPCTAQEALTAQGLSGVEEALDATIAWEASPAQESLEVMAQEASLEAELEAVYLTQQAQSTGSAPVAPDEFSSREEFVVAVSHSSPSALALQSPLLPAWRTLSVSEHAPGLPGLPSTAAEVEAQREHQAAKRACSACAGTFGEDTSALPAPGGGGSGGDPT
row,Compound,IC50 [nM]
1,c1ccc(-c2ccc(-c3ccccc3)o2)cc1,> 10000
2,O=C(c1ccccc1)c1cc(-c2ccccc2)oc1-c1ccccc1,340
3,COc1ccc(-c2ccc(-c3ccc(OC)c(OC)c3)o2)cc1OC,560
4,COc1ccc(-c2ccc(-c3cccnc3)o2)cc1OC1CCCC1,370
5,COc1ccc(-c2cc(S(=O)(=O)c3ccccc3)c(-c3ccccn3)o2)cc1OC1CCCC1,740
6,c1ccc(-c2cc(N3CCOCC3)c(-c3ccccc3)o2)cc1,2300
7,COc1ccc(-c2oc(-c3ccccn3)cc2S(=O)(=O)c2ccccc2)cc1OC1CCCC1,770
8,COc1ccc(-c2oc(-c3ccccn3)cc2C(=O)c2ccccc2)cc1OC1CCCC1,590

# Now from value to compound:
row,IC50 [nM],Compound
1,190,COc1ccc(-c2ccc(-c3ccc4ccccc4n3)o2)cc1OC1CCCC1
2,120,COc1ccc(-c2cc(C(C)=O)c(-c3ccc(OC)c(OC)c3)o2)cc1OC
3,65,COc1ccc(-c2ccc(-c3ccncc3)o2)cc1OC1CCCC1
4,44,COc1ccc(-c2ccc(-c3ccc(OC)c(OC4CCCC4)c3)o2)cc1OC1CCCC1
5,25,COc1ccc(-c2ccc(-c3ccccn3)o2)cc1OC1CCCC1
